This test relates to LRF (luteinizing hormone releasing factor) induced luteinizing hormone (LH) release. The test is described as follows: LRF antagonist activity in vitro in rat anterior pituitary cell cultures. It is filed as cell-based. As to conditions: LRF alone 3.5×10^-10 Molar (LRF Control). An excerpt:
Octapeptides of this invention were screened for LRF antagonist activity in vitro using rat anterior pituitary cell cultures as described by Vale et. al. [Endocrinology, 91, 562 (1972)]. The inhibition of LRF (luteinizing hormone releasing factor) induced luteinizing hormone (LH) release into the culture medium is the endpoint in this in vitro bioassay.

Values joined by “and” are separate entries in the source; they are usually repeats but may differ in a detail not shown here. Identical values can stand only once.

For the substance “LRF Control: luteinizing hormone releasing factor, the stimulus whose LH release the octapeptides inhibit; also called luteinizing hormone releasing hormone (QHWSYGLRPG; Gonadoliberin-1; UniProt P01148 24-33, looked up)”, the “LH Value” was 63.90 ng/mL and 64.13 ng/mL and 40.01 ng/mL.
